Reference: patent US20030133958A1, “External agent for the skin and whitening agent” (priority 2000, published 2003)

Tests used:
B-16 melanoma cells [1] = assay: Test for evaluating melanogenesis-inhibitory function (cell-whitening degree) in cell culture systems using B-16 melanoma cells; format: cell-based; design: key to Whitening degree: ++: The whitening degree is higher than that observed when adding 450 μg/mL of vitamin C-magnesium phosphate.; +: The whitening degree is almost identical to that observed when adding 450 μ g/mL of vitamin C-magnesium phosphate.; ±: The whitening degree is not higher than that observed when adding 450 μg/mL of vitamin C-magnesium phosphate, but higher than that of the control.; −: The whitening degree is almost identical to that observed for the control
From the text: (§1) The B-16 melanoma cell is one having an ability of producing melanin and therefore, the cells naturally grown by cell culture blacken. If a substance capable of inhibiting melanogenesis is present in the cell growth system during the cell growth, the blackening of the cells is inhibited and they relatively whiten. Accordingly, the whitening effect of each candidate substance can be evaluated on the basis of the degree of whiteness observed when adding a test sample relative to the degree of blackness observed for a control. […] To evaluate this cytotoxicity, the cell survival rate observed when adding a test sample to the system is compared with that observed for the control. Thus, the substantial whitening effect can be evaluated on the basis of the results of these cell-whitening test and cytotoxicity test.
An example of such a method for evaluating the melanogenesis-inhibitory function in a cell culture system using B-16 melanoma cells comprises, for instance, the steps of dispensing 2 ml/well of a culture medium to each well of a 6-well plate, inoculating a desired amount of melanoma cells to the medium, cultivating the cells by allowing the medium to stand at 37° C. and a carbon dioxide concentration of 5%. On the following day, a solution of a test sample is added and mixed with the culture medium to a predetermined concentration and the cell cultivation is continued. After 5 days from the initiation of the cultivation, the culture medium is replaced with fresh one and the solution of the test sample is again added thereto. On the next day, the medium is removed to thus recover the cells, followed by washing them with PBS (phosphate-buffered saline) and the determination of the degree of whiteness to thus evaluate the whitening effect of the test sample. In this connection, the melanogenesis-inhibitory function is evaluated by comparing the results thus obtained with the degree of whiteness observed when the same procedures are repeated using the vitamin C-magnesium phosphate as a known whitening agent instead of the test sample solution (positive control) and that observed when the procedures are repeated without addition of any test sample (control).
A culture medium was dispensed to wells of a 6-well plate (2 mL/well each), followed by inoculation of a desired amount of B-16 melanoma cells on each well, allowing the wells to stand at 37° C. and 5% CO2 to thus cultivate the cells. On the day subsequent thereto, a sample solution prepared was added to the wells with stirring and the cultivation was continued. The culture medium was replaced with fresh one on the 5th day from the initiation of the cultivation and the sample solution was again added to the wells. On the next day, the culture medium was removed to recover the cells, followed by washing them with PBS (phosphate buffered physiological saline) and then evaluation of the cell-whitening degree In this respect, the melanogenesis-inhibitory function was evaluated by comparing the cell-whitening degree thus obtained with that observed when the same procedures used above were repeated except that vitamin C-magnesium phosphate as a known whitening agent (positive control) was substituted for the sample solution used above and that observed when the same procedures used above were repeated except that any sample was not added (control), according to the following evaluation criteria.
The evaluation criteria for the cell-whitening degree are as follows: […]

B-16 melanoma cells [2] = assay: Cell-survival rate (cytotoxicity) in B-16 melanoma cell culture; format: cell-based
From the text: as §1
The cell-survival rate at each added sample concentration can be determined according to the following formula
Cell-Survival Rate (%)=(A/B)×100
Wherein A represents the viable cell count observed for the system to which a sample is added and B represents the number of cells observed for the control system.

[3] = concentration 2 ppm, B-16 melanoma cells
[4] = concentration 4 ppm, B-16 melanoma cells
[5] = concentration 6 ppm, B-16 melanoma cells
[6] = concentration 8 ppm, B-16 melanoma cells
[7] = concentration 10 ppm, B-16 melanoma cells
[8] = concentration 15 ppm, B-16 melanoma cells
[9] = concentration 25 ppm, B-16 melanoma cells
[10] = concentration 50 ppm, B-16 melanoma cells

Row | Compound | oil-solubility, in words (Solubility (oil / water)) | Whitening degree (B-16 melanoma cells [1]; [3]) | Whitening degree (B-16 melanoma cells [1]; [4]) | Whitening degree (B-16 melanoma cells [1]; [5]) | Whitening degree (B-16 melanoma cells [1]; [6]) | Whitening degree (B-16 melanoma cells [1]; [7]) | Whitening degree (B-16 melanoma cells [1]; [8]) | Whitening degree (B-16 melanoma cells [1]; [9]) | Whitening degree (B-16 melanoma cells [1]; [10]) | cell-survival rate at the added concentration showing a whitening degree almost identical to vitamin C-magnesium phosphate at 450 ppm (B-16 melanoma cells [2]; mouse) | Cell-Survival Rate (B-16 melanoma cells [2]; mouse, 2 ppm) [%] | Cell-Survival Rate (B-16 melanoma cells [2]; mouse, 4 ppm) [%] | Cell-Survival Rate (B-16 melanoma cells [2]; mouse, 6 ppm) [%] | Cell-Survival Rate (B-16 melanoma cells [2]; mouse, 8 ppm) [%] | Cell-Survival Rate (B-16 melanoma cells [2]; mouse, 10 ppm) [%] | Cell-Survival Rate (B-16 melanoma cells [2]; mouse, 15 ppm) [%] | Cell-Survival Rate (B-16 melanoma cells [2]; mouse, 25 ppm) [%] | Cell-Survival Rate (B-16 melanoma cells [2]; mouse, 50 ppm) [%] | Cell-Survival Rate (B-16 melanoma cells [2]; mouse, 100 ppm) [%] | Cell-Survival Rate (B-16 melanoma cells [2]; mouse, 200 ppm) [%] | also measured
1 | CC1(C)CC[C@]2(C(=O)O)CC[C@]3(C)C(=CC[C@@H]4[C@@]5(C)C[C@@H](O)[C@H](O)C(C)(C)[C@@H]5CC[C@]43C)[C@@H]2C1 [maslinic acid] | oil-soluble |  |  |  |  |  |  |  |  |  |  |  |  |  |  |  |  |  |  |  | solubility in water, in words (Solubility (oil / water)): hardly soluble in water
2 | C[C@H]1[C@H](C)CC[C@]2(CO)CC[C@]3(C)C(=CC[C@@H]4[C@@]5(C)CC[C@H](O)C(C)(C)[C@@H]5CC[C@]43C)[C@H]12 [Uvaol, uvaol] | oil-soluble | − | − | − | ± | + | + | + | + | 99-100% | 100 | 100 | 100 | 100 | 100 | 100 | 90 | 82 | 71 | 61 | 
3 | C=C(C)[C@@H]1CC[C@]2(CO)CC[C@]3(C)[C@H](CC[C@@H]4[C@@]5(C)CC[C@H](O)C(C)(C)[C@@H]5CC[C@]43C)[C@@H]12 [Betulin, betulin] | oil-soluble | − | − | ± | ± | ± | + | + | + |  |  |  |  |  |  |  |  |  |  |  | Cell-Survival Rate (B-16 melanoma cells [2]; [3]): 100%; Cell-Survival Rate (B-16 melanoma cells [2]; [4]): 100%; Cell-Survival Rate (B-16 melanoma cells [2]; [5]): 100%; Cell-Survival Rate (B-16 melanoma cells [2]; [6]): 100%; Cell-Survival Rate (B-16 melanoma cells [2]; [7]): 100%; Cell-Survival Rate (B-16 melanoma cells [2]; [8]): 100%; Cell-Survival Rate (B-16 melanoma cells [2]; [9]): 100%; Cell-Survival Rate (B-16 melanoma cells [2]; [10]): 100%
4 | CC1(C)CC[C@]2(C(=O)O)CC[C@]3(C)C(=CC[C@@H]4[C@@]5(C)C[C@@H](O)[C@H](O)C(C)(C)[C@@H]5CC[C@]43C)[C@@H]2C1 [Purified maslinic acid 1, maslinic acid] |  | ± | + | ++ | ++ | ++ |  |  |  |  |  |  |  |  |  |  |  |  |  |  | whitening effect, times that observed for vitamin C-magnesium phosphate (B-16 melanoma cells [1]; from Table 1, positive control vitamin C-magnesium phosphate 450 ppm): about 110 times; added concentration at which the whitening effect is almost identical to that of the positive control (B-16 melanoma cells [1]; positive control vitamin C-magnesium phosphate 450 ppm, B-16 melanoma cells): 4 ppm; Cell-Survival Rate (B-16 melanoma cells [2]; [3]): 100%; Cell-Survival Rate (B-16 melanoma cells [2]; [4]): 100%; Cell-Survival Rate (B-16 melanoma cells [2]; [5]): 100%; Cell-Survival Rate (B-16 melanoma cells [2]; [6]): 79%; Cell-Survival Rate (B-16 melanoma cells [2]; [7]): 57%
5 | C=C(C)[C@@H]1CC[C@]2(C(=O)O)CC[C@]3(C)[C@H](CC[C@@H]4[C@@]5(C)CC[C@H](O)C(C)(C)[C@@H]5CC[C@]43C)[C@@H]12 [Betulinic acid, betulinic acid] | oil-soluble | − | ± | ± | ± | + | + | + | + | 99-100% | 100 | 100 | 100 | 100 | 99 | 83 | 76 | 69 | 60 | 51 | 
6 | CC1(C)CC[C@]2(CO)CC[C@]3(C)C(=CC[C@@H]4[C@@]5(C)CC[C@H](O)C(C)(C)[C@@H]5CC[C@]43C)[C@@H]2C1 [Erythrodiol, erythrodiol] | oil-soluble | ± | ± | ± | ± | ± | ± | + | + | 99-100% | 100 | 100 | 100 | 100 | 100 | 100 | 100 | 97 | 85 | 72 | 
